Laboratory results: patent publication US20210123061A1, “METHODS AND COMPOSITIONS FOR TREATING INFLAMMATORY DISEASE OR DISORDER” (THE BRIGHAM AND WOMEN'S HOSPITAL, INC., priority 2018, published 2021)

Tested on: STAT1-pSer727
Assay: Anti-STAT1-pSer727 immunoprecipitation with parallel reaction monitoring mass spectrometry
Type: cell-based, human
Conditions: versus IFN-γ (plus DMSO) alone
Experimental: FIGS. 3A-3F show RSK1 is activated through JAK signaling and its inhibition suppresses STAT1 phosphorylation at Ser727 in human primary macrophages in response to IFN-γ. (FIG. 3A) PBMC-derived macrophages were pre-treated with DMSO or 10 μM a pan-JAK inhibitor, pyridone-6, for two hours and then stimulated with IFN-γ for indicated time under serum starvation. Cell lysates were subjected to immunoprecipitation with normal IgG or anti-RSK1 followed by immunoblot analysis using the indicated antibodies. WCL, whole cell lysate. N=3 donors. […] (FIG. 3D) Densitometric based quantification (ImageJ Software) of STAT1-pSer727 in panel (FIG. 3C) plus three additional donors. […] (FIG. 3F) Quantification of PRM ions (MS/MS ions) of the indicated STAT1 peptide harboring a phosphorylation at Ser727 (and oxidized methionine, m), generated from the digest of panel […].
Anti-STAT1-pSer727 IPs—The STAT1 peptide with phosphorylation at Ser727 was detected on the Orbitrap Fusion Lumos. […]
Anti-STAT1-pSer727 IPs—The three most abundant fragment ions of the target peptide (LQTTDNLLPmsPEEFDEVSR (SEQ ID NO: 5)-m10-oxidation, s11-phosphorylation, 806.3575 m/z, z=3) as annotated by SEQUEST (PD2.1) were used for quantification: y12^2+, 759.79455 m/z; c12^+, 1424.64911 m/z; b8^+, 899.48327 m/z. AUC of each fragment was calculated using the Skyline software (https://skyline.gs.washington.edu). […]

CC(C)CCN1c2nc(Nc3cc(F)c(O)c(F)c3)ncc2N(C)C(=O)C1C (centres unmarked) [BI-D1870]
STAT1-pSer727 recovered post-immunoprecipitation: less
pSer727 site-specific signal, PRM of three EThcD fragment ions: decrease in signal
